Target: T1, bovine serum albumin (BSA) (Bos taurus, UniProt P02769)
T1 construct: gene ALB; PDB 4F5S used for docking only
Test: intrinsic fluorescence quenching (ex […] nm, em […] nm), double-logarithmic plot
Assay type: binding
Details: 310 K, pH 7.4, 10 mM Tris-HCl, 150 mM NaCl, 2 uM BSA, 0.1% acetonitrile, no site probe; double-log

T1 sequence (P02769 25-607): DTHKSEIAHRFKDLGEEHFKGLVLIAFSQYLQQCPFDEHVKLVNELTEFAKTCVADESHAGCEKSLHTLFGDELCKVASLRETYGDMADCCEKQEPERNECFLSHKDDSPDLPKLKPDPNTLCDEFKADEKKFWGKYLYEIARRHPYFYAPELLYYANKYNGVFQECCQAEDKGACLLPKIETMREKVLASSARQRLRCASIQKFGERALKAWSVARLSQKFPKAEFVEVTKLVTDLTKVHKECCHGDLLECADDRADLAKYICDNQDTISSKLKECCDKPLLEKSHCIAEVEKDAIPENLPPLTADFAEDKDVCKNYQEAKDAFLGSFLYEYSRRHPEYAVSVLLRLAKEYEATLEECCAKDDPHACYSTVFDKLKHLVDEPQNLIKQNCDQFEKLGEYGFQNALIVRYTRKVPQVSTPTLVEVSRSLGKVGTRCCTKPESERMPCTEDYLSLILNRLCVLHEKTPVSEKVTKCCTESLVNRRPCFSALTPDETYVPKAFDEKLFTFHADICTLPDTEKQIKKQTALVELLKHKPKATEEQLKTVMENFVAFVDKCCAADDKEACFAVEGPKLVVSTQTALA

SMILES	Ka [M⁻¹]	Ka (M^-1)
CCCSP(=O)(OCC)Oc1ccc(Br)cc1Cl (centres unmarked) [compound 1, 4-bromo-2-chloro-1-[ethoxy(propylsulfanyl)phosphoryl]oxybenzene]	3897 ± 1.49	
O=C1C2CC=CCC2C(=O)N1SC(Cl)(Cl)Cl (centres unmarked) [compound 2, 2-(trichloromethylsulfanyl)-3a,4,7,7a-tetrahydroisoindole-1,3-dione]		14,581 ± 1.40 M^-1
